# Measurements as given in the SangsterLogP compilation.
# Experiment: not given
row,logP,Compound
1,3.96,CCOc1ccc(NC(=O)OC(C)C(Cl)(Cl)Cl)cc1OCC (stereo unspecified)
2,5.06,CCCCCCC(C)OC(=O)Nc1ccc(OCC)c(OCC)c1 (stereo unspecified)
3,2.97,CCOc1ccc(NC(=O)OC(C)CCl)cc1OCC (stereo unspecified)
4,2.86,C#CCC(C)OC(=O)Nc1ccc(OCC)c(OCC)c1 (stereo unspecified)
5,3.37,C=CCC(C)OC(=O)Nc1ccc(OCC)c(OCC)c1 (stereo unspecified)
6,3.07,C#CC(CC)OC(=O)Nc1ccc(OCC)c(OCC)c1 (stereo unspecified)

# More lines, now with the values behind:
row,Compound,logP
1,C#CCCOC(=O)Nc1ccc(OCC)c(OCC)c1,2.54
2,CCOc1ccc(NC(=O)OC(C)c2ccccc2)cc1OCC (stereo unspecified),3.56
3,CCOc1ccc(NC(=O)OC(C)COC)cc1OCC (stereo unspecified),2.56
4,CCOc1ccc(NC(=O)OC(C)CF)cc1OCC (stereo unspecified),2.59
5,CCOc1ccc(NC(=O)OCCF)cc1OCC,2.27
6,CCOc1ccc(NC(=O)OC(C)(C)C)cc1OCC,3.17
7,C=CC(CC)OC(=O)Nc1ccc(OCC)c(OCC)c1 (stereo unspecified),3.42
8,CCOc1ccc(NC(=O)OCCCl)cc1OCC,2.62
9,CCOc1ccc(NC(=O)OCCBr)cc1OCC,2.78

# Experiment: method code SF-AS, from DOI: 10.1584/jpestics.13.587
row,logP,Compound
1,2.68,C#CC(C)OC(=O)Nc1ccc(OCC)c(OCC)c1 (stereo unspecified)
